Results: the NIST ThermoML archive (doi:10.1016/j.jct.2017.08.004)

Assay: molar heat capacity at constant pressure
Conditions: 101.33 kPa, Crystal

O[C@H]1[C@H](O)[C@@H](O)[C@H](O)[C@@H](O)[C@H]1O [cis-1,2,3,5-trans-4,6-cyclohexanehexol]
molar heat capacity at constant pressure [J/K/mol]
Conditions	Small sample (50 mg) DSC	relaxation calorimetry
1 K	–	0.00189
1.926 K	–	0.009609
2 K	–	0.0108
2.127 K	–	0.01292
2.354 K	–	0.01758
2.61 K	–	0.02281
2.904 K	–	0.03148
3 K	–	0.03479
3.219 K	–	0.04281
3.569 K	–	0.0586
3.959 K	–	0.08072
4 K	–	0.08367
4.391 K	–	0.1121
4.872 K	–	0.1562
5 K	–	0.1693
5.405 K	–	0.2182
5.998 K	–	0.3056
6 K	–	0.3048
6.654 K	–	0.4273
7 K	–	0.5031
7.388 K	–	0.5992
8 K	–	0.7731
8.198 K	–	0.8347
9 K	–	1.113
9.101 K	–	1.15
10 K	–	1.523
10.15 K	–	1.591
11.25 K	–	2.131
12.48 K	–	2.827
13.85 K	–	3.674
15 K	–	4.447
15.39 K	–	4.714
17.07 K	–	5.945
18.96 K	–	7.393
20 K	–	8.193
21.04 K	–	8.992
23.37 K	–	10.83
25 K	–	12.09
25.95 K	–	12.77
28.81 K	–	14.98
30 K	–	15.9
32 K	–	17.42
35 K	–	19.73
35.5 K	–	20.13
39.37 K	–	23.3
40 K	–	23.68
43.71 K	–	26.66
45 K	–	27.69
48.5 K	–	30.26
50 K	–	31.58
53.84 K	–	34.36
55 K	–	35.27
59.75 K	–	39.03
60 K	–	39.12
65 K	–	43.04
66.32 K	–	44.21
70 K	–	47.02
73.64 K	–	49.9
75 K	–	51.04
80 K	–	55.09
81.73 K	–	56.7
85 K	–	59.15
90 K	–	63.21
90.71 K	–	63.72
95 K	–	67.25
100 K	–	71.28
100.66 K	–	71.12
110 K	–	79.22
110.79 K	–	79.63
120 K	–	87.03
120.83 K	–	87.98
130 K	–	94.69
130.89 K	–	95.77
140 K	–	102.22
141.02 K	–	103.28
150 K	–	109.64
151.12 K	–	110.61
160 K	–	116.97
161.24 K	–	117.92
170 K	–	124.22
171.29 K	–	125.13
180 K	–	131.43
181.39 K	–	132.46
188.15 K	132.1	–
189.15 K	133.01	–
190 K	–	138.61
190.15 K	134.04	–
191.15 K	134.87	–
191.48 K	–	139.61
192.15 K	135.65	–
193.15 K	136.44	–
194.15 K	137.52	–
195.15 K	138.44	–
196.15 K	139.45	–
197.15 K	140.42	–
198.15 K	141.25	–
199.15 K	142.04	–
200 K	–	145.78
200.15 K	142.99	–
201.15 K	143.81	–
201.58 K	–	146.36
202.15 K	144.76	–
203.15 K	145.49	–
204.15 K	146.25	–
205.15 K	147.12	–
206.15 K	147.9	–
207.15 K	148.76	–
208.15 K	149.37	–
209.15 K	150.17	–
210 K	–	152.96
210.15 K	150.93	–
211.15 K	151.82	–
211.7 K	–	153.74
212.15 K	152.59	–
213.15 K	153.21	–
214.15 K	154.05	–
215.15 K	154.79	–
216.15 K	155.5	–
217.15 K	156.37	–
218.15 K	157.24	–
219.15 K	158	–
220 K	–	160.15
220.15 K	158.66	–
221.15 K	159.51	–
221.79 K	–	161.31
222.15 K	160.36	–
223.15 K	161.11	–
224.15 K	161.84	–
225.15 K	162.58	–
226.15 K	163.3	–
227.15 K	164.03	–
228.15 K	164.76	–
229.15 K	165.48	–
230 K	–	167.37
230.15 K	166.09	–
231.15 K	166.87	–
231.88 K	–	168.69
232.15 K	167.66	–
233.15 K	168.47	–
234.15 K	169.23	–
235.15 K	169.98	–
236.15 K	170.76	–
237.15 K	171.54	–
238.15 K	172.36	–
239.15 K	173.06	–
240 K	–	174.63
240.15 K	173.81	–
241.15 K	174.61	–
241.96 K	–	176.25
242.15 K	175.4	–
243.15 K	176.08	–
244.15 K	176.84	–
245.15 K	177.49	–
246.15 K	178.19	–
247.15 K	178.89	–
248.15 K	179.65	–
249.15 K	180.32	–
250 K	–	181.94
250.15 K	181.03	–
251.15 K	181.9	–
251.99 K	–	183.44
252.15 K	182.55	–
253.15 K	183.36	–
254.15 K	184.08	–
255.15 K	184.96	–
256.15 K	185.78	–
257.15 K	186.45	–
258.15 K	187.25	–
259.15 K	188.05	–
260 K	–	189.3
260.15 K	188.81	–
261.15 K	189.58	–
262.11 K	–	191.23
262.15 K	190.24	–
263.15 K	191.02	–
264.15 K	191.84	–
265.15 K	192.51	–
266.15 K	193.18	–
267.15 K	194.11	–
268.15 K	194.88	–
269.15 K	195.58	–
270 K	–	196.73
270.15 K	196.44	–
271.15 K	197.16	–
272.15 K	197.91	–
272.17 K	–	198.87
273.15 K	198.7	199.08
274.15 K	199.42	–
275.15 K	200.19	–
276.15 K	201.09	–
277.15 K	201.63	–
278.15 K	202.4	–
279.15 K	203.19	–
280 K	–	204.22
280.15 K	203.91	–
281.15 K	204.75	–
282.15 K	205.45	–
282.18 K	–	206.06
283.15 K	206.13	–
284.15 K	206.78	–
285.15 K	207.67	–
286.15 K	208.29	–
287.15 K	208.96	–
288.15 K	209.73	–
289.15 K	210.44	–
290 K	–	211.78
290.15 K	211.29	–
291.15 K	212.09	–
292.15 K	212.8	–
292.29 K	–	213.34
293.15 K	213.54	–
294.15 K	214.44	–
295.15 K	215.31	–
296.15 K	216.01	–
297.15 K	216.77	–
298.15 K	217.6	218
299.15 K	218.39	–
300 K	–	219.42
300.15 K	219.12	–
301.15 K	219.99	–
302.15 K	220.81	–
302.4 K	–	220.86
303.15 K	221.72	–
304.15 K	222.56	–
305 K	223.54	–
305.15 K	223.48	–
306.15 K	224.53	–
307.15 K	225.41	–
308.15 K	226.47	–
309.15 K	227.45	–
310 K	228.25	–
310.15 K	228.42	–
311.15 K	229.32	–
312.15 K	230.3	–
313.15 K	231.18	–
314.15 K	232.03	–
315 K	232.85	–
